Test results: patent US7935817B2, “Salt form and cocrystals of adefovir dipivoxil and processes for preparation thereof” (Apotex Pharmachem Inc., priority 2008, dated 2011)
In brackets after ≈: the same amount, converted by molar mass. Entries after “also recorded” stand apart in the source; their conditions may differ. Read-outs that look alike come from different tables or passages of the source.

Experiments:
[1] = stability studies: HPLC purity after storage at 40° C./75% relative humidity; type: physicochemical
[2] = cited from earlier work
[3] = pH 7; cited from earlier work
[4] = after 1 week at 40° C./75% R.H.

Compound: CC(C)(C)C(=O)OCOP(=O)(COCCn1cnc2c(N)ncnc21)OCOC(=O)C(C)(C)C [amorphous adefovir dipivoxil, 9-[2-[[bis[(pivaloyloxy)methoxy]phosphinyl]-methoxy]ethyl]adenine]
- decrease of HPLC purity [1, 4]: more than 1%
- decrease of HPLC purity ([1]; after 2 weeks at 40° C./75% R.H.): 2%
- decrease of HPLC purity per week ([1]; storage at 40° C./75% relative humidity, over 2 weeks): 1 % per week

Compound: CC(C)(C)C(=O)OCOP(=O)(COCCn1cnc2c(N)ncnc21)OCOC(=O)C(C)(C)C.NC(=O)c1cccnc1 [ADE:NIC, adefovir dipivoxil:nicotinamide]
- decrease of HPLC purity [1, 4]: no decrease; also recorded: unchanged
- decrease of HPLC purity ([1]; after 4 weeks at 40° C./75% R.H.): 0.06%

Compound: CC(C)(C)C(=O)OCOP(=O)(COCCn1cnc2c(N)ncnc21)OCOC(=O)C(C)(C)C [Adefovir dipivoxil, 9-[2-[[bis[(pivaloyloxy)methoxy]phosphinyl]-methoxy]ethyl]adenine]
- aqueous solubility ([2]; pH 2.0): 19000 µg/mL (≈ 37.9 mM)
- aqueous solubility ([2]; pH 7.2): 400 µg/mL (≈ 0.798 mM)
- octanol/aqueous phosphate buffer partition coefficient (log p) [3]: 1.91
